Assay results from paper PMC9995496, “A screen for MeCP2-TBL1 interaction inhibitors using a luminescence-based assay” (Scientific Reports, 2023).
Counter-ions that a name gives are not always drawn.

The molecules below were run on PRKACA-PRKAR2A interaction (SmBiT-PRKACA / LgBiT-PRKAR2A), protein kinase A. Conditions: 0.5 h, 20 µM; inhibitor.
Set-up: NanoLuc complementation counter-screen in cell extract, PRKACA with PRKAR2A, loss of luminescence, detects NanoLuc interference

For `N[C@@H](Cc1ccc(N(CCCl)CCCl)cc1)C(=O)O` [UM0132725:02, Melphalan], the “Inh (PKA)” value was 3.23.

Going from `CCOC(=O)c1cncn1[C@H](C)c1ccccc1` [UM0133274:02, Etomidate] to `C/C=C/c1ccc2c(c1)OCO2` [UM0133473:02, Isosafrole], the “Inh (PKA)” value falls from 13.38% to 2.424%.

Same assay, conditions: counter-screen for NanoLuc interference, 0.5 h, 20 µM, inhibitor, Inh (PKA)

Compared with `CNC(=O)c1cc(Oc2ccc(NC(=O)Nc3ccc(Cl)c(C(F)(F)F)c3)cc2)ccn1` [UM0130993:02, Sorafenib Tosylate], `O=c1c(O)c(-c2ccc(O)c(O)c2)oc2cc(O)cc(O)c12` [UM0133552:02, Quercetin dihydrate] is higher in “Inh (PKA)” value: 7.099% for the first, 33.9% for the second.

Compared with `COc1ccc2c3c1O[C@H]1C[C@@H](O)C=C[C@@]31CCN(C)C2` [UM0132882:02, Galanthamine HBr], `O=c1c(O)c(-c2ccc(O)c(O)c2)oc2cc(O)cc(O)c12` [UM0133552:03, Quercetin] is higher in “Inh (PKA)” value: 0.1906% for the first, 26.1% for the second.

`CCOC(=O)C1=C[C@@H](OC(CC)CC)[C@H](NC(C)=O)[C@@H](N)C1` [UM0133352:02, Oseltamivir phosphate] was tested, and the “Inh (PKA)” value was -0.5287%.

Same assay, conditions: counter-screen for NanoLuc interference; 0.5 h, 20 µM; inhibitor

Going from `CC(C)(C)c1cc(NC(=O)Nc2ccc(-c3cn4c(n3)sc3cc(OCCN5CCOCC5)ccc34)cc2)no1` [UM0130989:03, Quizartinib (AC220)] to `COc1ccc(Cl)c(Nc2nc3ccccc3nc2NS(=O)(=O)c2cccc(NC(=O)C(C)(C)N)c2)c1` [UM0130997:02, XL147], the “Inh (PKA)” value rises from 1.247% to 61.81%.

Compared with `Cc1ccc(NC(=O)c2cccc(N(C)C)c2)cc1NC(=O)c1ccc(O)cc1` [UM0130998:02, ZM336372], `O=C(N/N=C/c1ccc([N+](=O)[O-])o1)c1ccc(O)cc1` [UM0133346:02, Nifuroxazide] is lower in “Inh (PKA)” value: 21.08% for the first, 17.08% for the second.

Going from `CCN(CC)CCCCNc1ncc2cc(-c3cc(OC)cc(OC)c3)c(NC(=O)NC(C)(C)C)nc2n1` [UM0131000:03, PD 173074] to `COc1cc2nccc(Oc3ccc(NC(=O)Nc4ccc(F)cc4F)c(F)c3)c2cc1OC` [UM0131001:04, Ki8751], the “Inh (PKA)” value rises from 0.205% to 5.997%.

First: CCN(CC)CCOc1ccc(C(=C(Cl)c2ccccc2)c2ccccc2)cc1 [UM0132668:02, Clomiphene citrate]
Second: CN(C)CCOc1ccc(/C(=C(/CCCl)c2ccccc2)c2ccccc2)cc1 [UM0133287:02, Toremifene Citrate]
The “Inh (PKA)” value of the first is lower: 14.01% for the first, 53.21% for the second.

Compared with `Cn1ccnc1S` [UM0132728:02, Methimazole], `CNCCc1ccccn1` [UM0132794:02, Betahistine 2HCl] is lower in “Inh (PKA)” value: 3.033% for the first, 2.049% for the second.

First: CCCc1cc(=O)[nH]c(=S)[nH]1 [UM0132755:02, Propylthiouracil]
Second: C/C=C1\[C@H]2C=C(C)C[C@]1(N)c1ccc(=O)[nH]c1C2 [UM0133189:02, (-)-Huperzine A]
The “Inh (PKA)” value of the first is higher: 1.031% for the first, 0.2799% for the second.

Compared with `Cn1c(=O)c2nc[nH]c2n(C)c1=O` [UM0132766:02, Theophylline], `CC(=O)/N=c1/sc(S(N)(=O)=O)nn1C` [UM0132958:02, Methazolamide] is higher in “Inh (PKA)” value: -0.2913% for the first, 0.8823% for the second.

First: COc1c(C)c2c(c(O)c1C/C=C(\C)CCC(=O)O)C(=O)OC2 [UM0132795:02, Mycophenolic acid]
Second: COc1ccc(-c2oc3c(CC=C(C)C)c(O[C@@H]4O[C@H](CO)[C@@H](O)[C@H](O)[C@H]4O)cc(O)c3c(=O)c2O[C@@H]2O[C@@H](C)[C@H](O)[C@@H](O)[C@H]2O)cc1 [UM0133190:02, Icariin]
The “Inh (PKA)” value of the first is lower: 1.414% for the first, 17.39% for the second.

First: O=c1ccc2cc(O)c(O)cc2o1 [UM0132846:02, 6,7-Dihydroxycoumarin]
Second: Oc1cc(Cl)ccc1Oc1ccc(Cl)cc1Cl [UM0133255:02, Triclosan]
The “Inh (PKA)” value of the first is lower: 4.392% for the first, 50.68% for the second.

First: CCOC(=O)[C@H](CCc1ccccc1)N[C@@H](C)C(=O)N1CCC[C@H]1C(=O)O [UM0132889:02, Enalapril Maleate]
Second: CCOC(=O)[C@H](CCc1ccccc1)N[C@@H](C)C(=O)N1[C@H](C(=O)O)C[C@@H]2CCC[C@@H]21 [UM0133179:02, Ramipril]
The “Inh (PKA)” value of the first is lower: -0.0661% for the first, 0.6461% for the second.

Going from `Nc1nc(=O)c2nc(CNc3ccc(C(=O)N[C@@H](CCC(=O)O)C(=O)O)cc3)cnc2[nH]1` [UM0132892:02, Folic acid] to `CN(Cc1cnc2nc(N)nc(N)c2n1)c1ccc(C(=O)N[C@@H](CCC(=O)O)C(=O)O)cc1` [UM0133539:02, Methotrexate], the “Inh (PKA)” value rises from 2.052% to 2.622%.

Going from `CCN1CCN(c2cc3c(cc2F)c(=O)c(C(=O)O)cn3C2CC2)CC1` [UM0132985:02, Enrofloxacin] to `CC1COc2c(N3CCN(C)CC3)c(F)cc3c(=O)c(C(=O)O)cn1c23` (stereo not shown) [UM0133058:02, Ofloxacin], the “Inh (PKA)” value falls from 1.786% to -0.3552%.

Going from `C=CC[C@@H]1/C=C(\C)C[C@H](C)C[C@H](OC)[C@H]2O[C@@](O)(C(=O)C(=O)N3CCCC[C@H]3C(=O)O[C@H](/C(C)=C/[C@@H]3CC[C@@H](O)[C@H](OC)C3)[C@H](C)[C@@H](O)CC1=O)[C@H](C)C[C@@H]2OC` [UM0132999:02, Tacrolimus (FK506)] to `CC[C@H](C)C(=O)O[C@H]1C[C@@H](C)C=C2C=C[C@H](C)[C@H](CC[C@@H]3C[C@@H](O)CC(=O)O3)[C@H]21` [UM0133001:02, Lovastatin], the “Inh (PKA)” value falls from 15.44% to 15.39%.

First: CS(=O)(=O)c1ccc(C2=C(c3ccccc3)C(=O)OC2)cc1 [UM0133054:02, Rofecoxib]
Second: NC(=O)N1c2ccccc2C=Cc2ccccc21 [UM0133618:02, Carbamazepine]
The “Inh (PKA)” value of the first is lower: 1.384% for the first, 3.187% for the second.

First: CCCCC1=NC2(CCCC2)C(=O)N1Cc1ccc(-c2ccccc2-c2nnn[nH]2)cc1 [UM0133057:02, Irbesartan]
Second: Clc1ccc2c(c1)C(N1CCNCC1)=Nc1ccccc1O2 [UM0133517:02, Amoxapine]
The “Inh (PKA)” value of the first is lower: 5.211% for the first, 7.389% for the second.

First: Cc1ccc(=O)n(-c2ccccc2)c1 [UM0133133:02, Pirfenidone]
Second: CNCC[C@H](Oc1cccc2ccccc12)c1cccs1 [UM0133232:02, Duloxetine HCl]
The “Inh (PKA)” value of the first is lower: 0.9802% for the first, 23.56% for the second.

Compared with `CN(C/C=C/C#CC(C)(C)C)Cc1cccc2ccccc12` [UM0133235:02, Terbinafine HCl], `CN1CC(=O)N2[C@H](c3ccc4c(c3)OCO4)c3[nH]c4ccccc4c3C[C@@H]2C1=O` [UM0133276:02, Tadalafil] is lower in “Inh (PKA)” value: 7.743% for the first, 5.88% for the second.

First: CC(=O)NCCCS(=O)(=O)O [UM0133300:02, Acamprosate calcium]
Second: Cc1nnc(SCC2=C(C(=O)O)N3C(=O)[C@@H](NC(=O)Cn4cnnn4)[C@H]3SC2)s1 [UM0133624:02, Cefazolin (sodium salt)]
The “Inh (PKA)” value of the first is higher: 0.9397% for the first, 0.1508% for the second.

First: CSc1nc2cc(Cl)c(Oc3cccc(Cl)c3Cl)cc2[nH]1 [UM0133345:02, Triclabendazole]
Second: O=C1CCc2ccc(OCCCCN3CCN(c4cccc(Cl)c4Cl)CC3)cc2N1 [UM0133361:02, Aripiprazole]
The “Inh (PKA)” value of the first is higher: 37.19% for the first, 19.63% for the second.

Compared with `CC1=C(O)C(=O)C=C2C1=CC=C1[C@@]2(C)CC[C@@]2(C)[C@@H]3C[C@](C)(C(=O)O)CC[C@]3(C)CC[C@]12C` [UM0133421:02, Celastrol], `NS(=O)(=O)c1cc2c(cc1Cl)N=CNS2(=O)=O` [UM0133622:02, Chlorothiazide] is lower in “Inh (PKA)” value: 15.02% for the first, 0.9686% for the second.

For `Nc1ncn([C@@H]2O[C@H](CO)[C@@H](O)[C@H]2O)c(=O)n1` [UM0133525:02, 5-Azacytidine], the “Inh (PKA)” value was 1.069%.
